Where “and” joins values, the source holds several entries; their conditions need not be identical. Equal entries are not always repeated. Where two headings read alike, the source gives them in different places.
How the values were obtained:
[1] = system: WI‐26 VA4 cells; experiment: Puromycin incorporation assay; format: cell-based, human
Method: After being rinsed with cold PBS twice, the cells were collected and resuspended in 200 μl of the carbonate bicarbonate buffer (Sigma Aldrich, C3041‐50CAP) with protease inhibitor. The cell lysates were obtained by sonication and centrifugation at 20,000 g for 15 min at 4°C. After protein quantification using a Pierce™ BCA Protein Assay Kit (Thermo Fisher Scientific, 23225), 400 ng of the proteins was coated to ELISA plates for 18 h at 4°C. […] The plates were rinsed with the washing buffer for three times after each antibody incubation step. […] The amount of puromycin incorporated in proteins was determined by measuring the absorbance at 450 nm (reference wavelength at 620 nm). Experimental values marked in red with strikethrough text in the Figure Source Data file were excluded from the analysis. These values were determined by considering the values of biological and technical replicates under the same condition, as well as the values at the former and later chemical concentrations.

[2] = system: TNT Quick Coupled Transcription/Translation System (luciferase synthesis); format: biochemical
[3] = system: WI‐26 VA4 cells; experiment: Collagen ELISA (secreted pro‐collagen I)
[4] = log(inhibitor) vs. response, variable slope (four parameters)
[5] = log(inhibitor) vs. response, variable slope (four parameters), concentration in nM

Cc1c(Cl)ccc2c1ncn2CC(=O)C[C@H]1NCCC[C@@H]1O [DWN11748]
activity at 100 µM ([1]; Homo sapiens, WI26VA4, 100000 nM, read-out: Puromycin, % of control, average): 0.98%
IC50 ([1]; Homo sapiens, WI26VA4, log(inhibitor) vs. response, variable slope (four parameters), read-out: Puromycin, IC50 (best-fit value)): 2.68 µM
Puromycin, HillSlope (best-fit value) [1, 4]: -2.365
Puromycin, LogIC50 (best-fit value) [1, 5]: 3.428
TNT-luciferase % of control ([2]; 20 nM, Experiment #1, replicates, 0.02 µM): 124.31 % of control and 118.51 % of control and 107.73 % of control
TNT-luciferase % of control ([2]; 20 nM, Experiment #2, replicates, 0.02 µM): 122.22 % of control and 112.59 % of control and 102.96 % of control
TNT-luciferase % of control, average ([2]; 20 nM): 114.72 % of control
TNT-luciferase % of control ([2]; 60 nM, Experiment #1, replicates, 0.06 µM): 118.51 % of control and 116.02 % of control and 106.08 % of control
TNT-luciferase % of control ([2]; 60 nM, Experiment #2, replicates, 0.06 µM): 117.78 % of control and 113.33 % of control and 103.70 % of control
TNT-luciferase % of control, average ([2]; 60 nM): 112.57 % of control
TNT-luciferase % of control ([2]; 200 nM, Experiment #1, replicates, 0.2 µM): 119.34 % of control and 112.71 % of control and 116.02 % of control
TNT-luciferase % of control ([2]; 200 nM, Experiment #2, replicates, 0.2 µM): 136.30 % of control and 122.22 % of control and 131.11 % of control
TNT-luciferase % of control, average ([2]; 200 nM): 122.95 % of control
TNT-luciferase % of control ([2]; 600 nM, Experiment #1, replicates, 0.6 µM): 122.65 % of control and 113.54 % of control and 107.73 % of control
TNT-luciferase % of control ([2]; 600 nM, Experiment #2, replicates, 0.6 µM): 109.63 % of control and 101.48 % of control and 108.89 % of control
TNT-luciferase % of control, average ([2]; 600 nM): 110.65 % of control
TNT-luciferase % of control ([2]; 2000 nM, Experiment #1, replicates, 2 µM): 77.24 % of control and 79.06 % of control and 67.79 % of control
TNT-luciferase % of control ([2]; 2000 nM, Experiment #2, replicates, 2 µM): 73.56 % of control and 76.30 % of control and 68.37 % of control
TNT-luciferase % of control, average ([2]; 2000 nM): 73.72 % of control
TNT-luciferase % of control ([2]; 6000 nM, Experiment #1, replicates, 6 µM): 17.73 % of control and 16.82 % of control and 16.99 % of control
TNT-luciferase % of control ([2]; 6000 nM, Experiment #2, replicates, 6 µM): 12.15 % of control and 12.07 % of control and 13.19 % of control
TNT-luciferase % of control, average ([2]; 6000 nM): 14.83 % of control
TNT-luciferase % of control ([2]; 20000 nM, Experiment #1, replicates, 20 µM): 0.54 % of control and 0.58 % of control and 0.61 % of control
TNT-luciferase % of control ([2]; 20000 nM, Experiment #2, replicates, 20 µM): 0.11 % of control and 0.0948 % of control and 0.12 % of control
TNT-luciferase % of control, average ([2]; 20000 nM): 0.35 % of control
TNT-luciferase % of control ([2]; 60000 nM, Experiment #1, replicates, 60 µM): 0.02 % of control (2×) and 0.0164 % of control
TNT-luciferase % of control ([2]; 60000 nM, Experiment #2, replicates, 60 µM): 0.000642 % of control and -0.00528 % of control and -0.00499 % of control
TNT-luciferase % of control, average ([2]; 60000 nM): 0.00775 % of control
TNT-luciferase % of control ([2]; 200000 nM, Experiment #1, replicates, 200 µM): 0.00754 % of control and 0.000331 % of control and -0.000994 % of control
TNT-luciferase % of control ([2]; 200000 nM, Experiment #2, replicates, 200 µM): 0.0019 % of control and 0.00487 % of control and -0.000321 % of control
TNT-luciferase % of control, average ([2]; 200000 nM): 0.00222 % of control
TNT-luciferase LogIC50 (best-fit value) [2, 5]: 3.407
IC50 ([2]; log(inhibitor) vs. response, variable slope (four parameters), unit from head concentration (nM), read-out: TNT-luciferase IC50 (best-fit value)): 2550 nM
Collagen, % of control (single replicates per experiment) ([3]; 3 nM, 0.003 µM): 95.16 % of control and 105.95 % of control and 100.28 % of control and 91.81 % of control and 92.46 % of control and 107.08 % of control and 97.10 % of control and 100.74 % of control and 124.62 % of control and 100.86 % of control
Collagen, % of control (single replicates per experiment) ([3]; 100 nM, 0.1 µM): 102.93 % of control and 54.86 % of control and 79.76 % of control and 92.40 % of control and 101.85 % of control and 87.72 % of control and 81.93 % of control and 104.58 % of control and 120.36 % of control
CC50/collagen IC50 ([3]; Fig 5E): 5.39
IC50 ([3]; Homo sapiens, WI26VA4, read-out: Collagen IC50 (best-fit value), log(inhibitor) vs. response, variable slope (four parameters) (converted)): 0.267 µM
activity at 0.03 µM ([3]; Homo sapiens, WI26VA4, read-out: Collagen, % of control (single replicates per experiment), 30 nM): 104%
activity at 0.3 µM ([3]; Homo sapiens, WI26VA4, read-out: Collagen, % of control (single replicates per experiment), 300 nM): 46.5%
activity at 1 µM ([3]; Homo sapiens, WI26VA4, read-out: Collagen, % of control (single replicates per experiment), 1000 nM): 7.82%
activity at 0.003 µM ([3]; Homo sapiens, WI26VA4, read-out: Collagen, % of control, average, 3 nM, average): 102%
activity at 0.01 µM ([3]; Homo sapiens, WI26VA4, read-out: Collagen, % of control, average, 10 nM, average): 100%
activity at 0.03 µM ([3]; Homo sapiens, WI26VA4, read-out: Collagen, % of control, average, 30 nM, average): 97.7%
activity at 0.1 µM ([3]; Homo sapiens, WI26VA4, read-out: Collagen, % of control, average, 100 nM, average): 88.9%
activity at 0.3 µM ([3]; Homo sapiens, WI26VA4, read-out: Collagen, % of control, average, 300 nM, average): 45.3%
activity at 1 µM ([3]; Homo sapiens, WI26VA4, read-out: Collagen, % of control, average, 1000 nM, average): 9.08%
activity at 3 µM ([3]; Homo sapiens, WI26VA4, read-out: Collagen, % of control, average, 3000 nM, average): 2.58%
activity at 10 µM ([3]; Homo sapiens, WI26VA4, read-out: Collagen, % of control, average, 10000 nM, average): 2.33%
Collagen HillSlope (best-fit value) [3, 4]: -2.011
Collagen LogIC50 (best-fit value) [3, 5]: 2.427
Relative (CC50)/(collagen IC50) ([3]; relative to HF, Fig 5E): 1.61
